Reference: US11976116B2, “Salvage chimeric antigen receptor systems” (2seventy bio, Inc., priority 2016, dated 2024)

What was measured:
[1] = system: K562-BCMA positive cells; test: Cytotoxicity assay, CAR T cells co-cultured with K562-BCMA positive and negative cells; assay type: cell-based; settings: 20 nM AP21967, 24 hours, E:T 5:1
Method: (§1) Human PBMCs (1×10^6 cells/mL) were activated with soluble anti-CD3 and anti-CD28 antibodies (50 ng/ml) on day 0. After 24 hr incubation, 1×10^6 cells were transduced with lentivirus encoding either an anti-BCMA CAR or an anti-BCMA salvage CAR. The transduced cells were washed and resuspended at 0.3×10^6 cells/mL growth medium on day 3. The CAR T cells were cultured for 7 days with IL-2 (250 IU/mL) containing medium changed every other day.
The cytotoxic potential of anti-BCMA CAR T cells and anti-BCMA salvage CAR T cells was analyzed by co-culturing day 10 CAR T cells (E, effector cells) with a 50:50 mixture of K562-BCMA positive cells (GFP positive) (T, target cells) and K562-BCMA negative cells (BFP positive) for 24 hours at an E:T ratio of 5:1. Cells were co-cultured with or without 20 nM AP21967 (a non-immunosuppressive rapamycin analog). The ratio of K562-BCMA positive cells to K562-BCMA negative cells is a direct readout of CAR T cell cytotoxicity.

[2] = system: K562-BCMA positive cells; test: IFNγ release assay (ELISA), CAR T cells co-cultured with K562-BCMA positive cells; assay type: cell-based; settings: 24 hours, E:T 1:1
Method: as §1
Antigen dependent cytokine secretion was analyzed by co-culturing day 10 CAR T cells with K562-BCMA positive cells for 24 hours at an E:T ratio of 1:1 (with or without AP21967). Culture supernatants were collected and IFNγ production was analyzed using the IFNγ ELISA kit (eBiosciences).

[3] = system: BCMA negative, CD19 positive Nalm-6 cells; test: Cytotoxicity assay, anti-BCMA salvage CAR T cells co-cultured with Nalm-6-CD19 positive and K562-CD19 negative cells; assay type: cell-based; settings: 250 ng pre-loaded receptor, with or without 100 nM AP21967, 24 hr, E:T 2:1
From the text: 293 T cells were transduced with lentivirus encoding the dimerizable anti-CD19 salvage receptor to generate a stable source of secreted anti-CD19-scFv-FKBP12 proteins (FIG. 1, right panel). Supernatant containing soluble anti-CD19 salvage receptor polypeptides (anti-CD19 scFV FKBP12) was collected from stable 293T-710 cells and filtered.
The anti-CD19 salvage receptor forms a heterodimer with the anti-BCMA salvage CAR in the presence of AP21967 (FIG. 3A). The cytotoxic potential of anti-BCMA salvage CAR T cells (E) against BCMA negative, CD19 positive Nalm-6 cells (T) was analyzed by co-culturing CAR T cells with a 50:50 mixture of Nalm-6-CD19 positive cells (GFP positive) and K562-CD19 negative cells (BFP positive) for 24 hours at an E:T ratio of 2:1. The co-cultures were treated with vehicle or 100 nM AP21967 and with different volumes of 293T-710 cell supernatant (0 μl, 10 μl, or 30 μl). […] FIG. 3B.
T cells were transduced with lentiviral vectors encoding an anti-BCMA CAR or anti-BCMA salvage CAR. The CART cells were co-cultured with a 50:50 mixture of CD19 positive Nalm-6 cells expressing GFP and CD19 negative K562 cells expressing BFP, in the presence or absence of 250 ng pre-loaded dimerizable anti-CD19 salvage receptor, with or without 100 nM AP21967, for 24 hr, at a 2:1 E:T ratio. […] FIG. 5. AP21967 was not required to trigger the CD19 specific cytotoxicity. […]

[4] = target and assay not given; cited from earlier work

With `CO[C@H]1[C@@H](O)[C@H](C)C[C@H](C)/C=C/C=C/C=C(\C)[C@@H](c2c[nH]c3c(C)cccc23)C[C@@H]2CC[C@@H](C)[C@@](O)(O2)C(=O)C(=O)N2CCCC[C@H]2C(=O)O[C@H]([C@H](C)C[C@@H]2CC[C@@H](O)[C@H](OC)C2)C[C@H](O)[C@H](C)/C=C(\C)[C@H]1O` [AP21967, C-16-(S)-7-methylindolerapamycin] the “effect of AP21967 on cytotoxicity” value [1] was “no effect on cytotoxicity”, the “effect of AP21967 in the IFNγ release co-culture” value [2] was “did not substantially affect cytotoxicity” and the “requirement of AP21967 for CD19 specific cytotoxicity” value [3] was “not required”. For the same compound, the IC50 [4] was 10 nM.
